{"source": "paper PMC3499368", "about": "“Evolution of Minimal Specificity and Promiscuity in Steroid Hormone Receptors” (PLoS Genetics, 2012)", "type_in_all_cases": "cell-based", "key": {"AncSR2-LBD": {"tested_on": "AncSR2-LBD", "assay": "luciferase reporter gene assay, Gal4-DBD fusion of AncSR2-LBD in CHO-K1 cells, activation", "settings": "for Ratio H1/H2 of EC50, preference for 17-acetyl vs. 17-hydroxy group / Ratio H2/H1 of EC50, preference for 17-acetyl vs. 17-hydroxy group: AncSR2, Table S5 section d, pairs H1/H2: 13/6, 17/8, 15/9, 16/10, 19/23; for Ratio H1/H2 of EC50, preference for 19-H vs. 19-methyl group / Ratio H2/H1 of EC50, preference for 19-H vs. 19-methyl group: AncSR2, Table S5 section i, pairs H1/H2: 8/6, 17/13, 18/15; for EC50: AncSR2, representative dose activation curves (Fig. S4) and Table S5 sections c-i; for activation of AncSR2 (in words): luciferase reporter", "from_the_text": "To experimentally test these hypotheses, we synthesized cDNAs for the AncSR1 and AncSR2 LBD protein sequences, expressed them as Gal4-DBD fusion constructs, and characterized their sensitivity to hormones using luciferase reporter gene assays. […] It was unresponsive to a broad array of androgens, progestagens, and corticosteroids, as well as cholesterol (Figure 2A, Figure S3).\nFor AncSR2, we identified all plausible alternate reconstructions (those with posterior probability >0.20 excluding biochemically similar K/R, D/E, S/T, and I/L differences) and introduced each alternate state individually into the AncSR2 background using the Quikchange Mutagenesis kit (Stratagene), verified clones by sequencing, and repeated the activation assays with each version of AncSR2 (Figure S6). The ML AncSR2 sequence reconstructed on the ML tree had high baseline activation in the absence of ligand; this phenotype is almost certainly an artifact, because constitutive baseline activity is not present in any of AncSR2's extant descendants; it is well-established that some amino acid replacements can cause nuclear receptors to become constitutive by marginally stabilizing the active conformation in the absence of hormone. […] The “constitutive” Leu79 state is weakly supported on the ML tree (PP = 0.59), and has no support (PP = 0.00) on the phylogeny that is most parsimonious in terms of gene duplications and losses; in contrast, the “non-constitutive” state Met79 has PP = 0.41 on the ML tree and PP = 1.00 on the rearranged gene duplication/loss tree (Figure S12, Table S8). The AncSR2 sequence used for all experiments reported in the text therefore contains state Met79. The other alternate reconstructions were then reintroduced into this AncSR2 sequence: none qualitatively changed the receptor's sensitivity to the various classes of steroid hormones, except for A171V, which conferred constitutive activity (Figure S6)."}, "AncSR1-LBD": {"tested_on": "AncSR1-LBD", "assay": "luciferase reporter gene assay, Gal4-DBD fusion of AncSR1-LBD in CHO-K1 cells, activation", "settings": "for activation of AncSR1 (in words): luciferase reporter", "from_the_text": "To experimentally test these hypotheses, we synthesized cDNAs for the AncSR1 and AncSR2 LBD protein sequences, expressed them as Gal4-DBD fusion constructs, and characterized their sensitivity to hormones using luciferase reporter gene assays."}, "AncSR1_Alt4": {"tested_on": "AncSR1_Alt4", "assay": "luciferase reporter assay, alternative reconstruction AncSR1_Alt4", "settings": "Alt4, Fig. S5B", "from_the_text": "(§1) To determine the robustness of functional inferences to statistical uncertainty in the reconstruction of AncSR1 and AncSR2, we used two approaches. AncSR1 had too many ambiguously reconstructed sites to examine each such residue individually, so we computationally sampled from the posterior probability distribution of reconstructed amino acid states to generate a cloud of possible ancestral sequences, each harboring a large number of alternate states. Specifically, we generated 1,000,000 possible ancestral sequences by sampling from the posterior probability distribution of states at each site. […] We synthesized these five radically alternative ancestral reconstructions de novo and repeated the functional assays.\n(§2) A) Distribution of posterior probabilities of 1 million protein sequences assembled by sampling amino acid states at each site from the posterior probability distribution for AncSR1 LBD. The ML reconstruction (AncSR1-ML) and the five alternative sequences with the highest posterior probability (Alt1-Alt5) in the 1 million samples are […]\n(§3) The column height and error bars indicate the mean and SEM of three independent experiments, respectively. […]"}, "AncSR1_Alt3": {"tested_on": "AncSR1_Alt3", "assay": "luciferase reporter assay, alternative reconstruction AncSR1_Alt3", "settings": "Alt3, Fig. S5B", "from_the_text": "as §1, §2, §3"}, "AncSR1_Alt5": {"tested_on": "AncSR1_Alt5", "assay": "luciferase reporter assay, alternative reconstruction AncSR1_Alt5", "settings": "Alt5, Fig. S5B", "from_the_text": "as §1, §2, §3"}, "AncSR1_Alt2": {"tested_on": "AncSR1_Alt2", "assay": "luciferase reporter assay, alternative reconstruction AncSR1_Alt2", "settings": "Alt2, Fig. S5B", "from_the_text": "as §1, §2, §3"}, "AncSR1_Alt1": {"tested_on": "AncSR1_Alt1", "assay": "luciferase reporter assay, alternative reconstruction AncSR1_Alt1", "settings": "Alt1, Fig. S5B", "from_the_text": "as §1, §2, §3"}, "[1]": {"settings": "listed as given under Hormone 1"}, "[2]": {"settings": "AncSR1, representative dose activation curves (Fig. S3) and Table S5 section b"}, "[3]": {"settings": "AncSR1, Table S5 section b, pairs H1/H2: 18/19, 22/20, 8/23, listed as given under Hormone 1"}, "[4]": {"settings": "AncSR2, Table S5 section f, pairs H1/H2: 1/6, 2/7, listed as given under Hormone 1"}, "[5]": {"settings": "AncSR2, Table S5 section g, pairs H1/H2: 1/3, 2/4, listed as given under Hormone 1"}, "[6]": {"settings": "AncSR2, Table S5 section e, pairs H1/H2: 18/17, 9/6, 15/13, listed as given under Hormone 1"}}, "note": "Where two headings read alike, the source gives them in different places."}
{"compound": "CC12CCC3C4CCC(=O)C=C4CCC3C1CCC2O", "note": "(stereo not drawn) [19-nortestosterone]", "values": [{"measurement": "Ratio H1/H2 of EC50, preference for 17-acetyl vs. 17-hydroxy group", "setting": "AncSR2-LBD; [1]", "value": 43.13}, {"measurement": "Ratio H2/H1 of EC50, preference for 17-acetyl vs. 17-hydroxy group", "setting": "AncSR2-LBD; [1]", "value": 0.02}, {"measurement": "Ratio H1/H2 of EC50, preference for 19-H vs. 19-methyl group", "setting": "AncSR2-LBD; [1]", "value": 0.59}, {"measurement": "Ratio H2/H1 of EC50, preference for 19-H vs. 19-methyl group", "setting": "AncSR2-LBD; [1]", "value": 1.68}, {"measurement": "EC50", "setting": "AncSR2-LBD", "value": 69, "unit": "nM"}]}
{"compound": "O=c1c(-c2ccc(O)cc2)coc2cc(O)cc(O)c12", "note": "[Genistein]", "values": [{"measurement": "activation of AncSR1 (in words)", "setting": "AncSR1-LBD", "value": "activated"}, {"measurement": "activation of AncSR2 (in words)", "setting": "AncSR2-LBD", "value": "not activated"}]}
{"compound": "C[C@]12CC[C@@H]3c4ccc(O)cc4CC[C@H]3[C@@H]1CCC2=O", "note": "[estrone]", "values": [{"measurement": "EC50", "setting": "AncSR1_Alt4", "value": 844, "unit": "nM"}, {"measurement": "EC50", "setting": "AncSR1_Alt3", "value": 42, "unit": "nM"}, {"measurement": "EC50", "setting": "AncSR1-LBD; [2]", "value": 69, "unit": "nM"}, {"measurement": "EC50", "setting": "AncSR1-LBD; AncSR1-ML, Fig. S5B", "value": 208, "unit": "nM"}, {"measurement": "EC50", "setting": "AncSR1_Alt5", "value": 223, "unit": "nM"}, {"measurement": "EC50", "setting": "AncSR1_Alt2", "value": 3000, "unit": "nM"}, {"measurement": "EC50", "setting": "AncSR1_Alt1", "value": 133, "unit": "nM"}]}
{"compound": "C[C@]12CCC(=O)C=C1CC[C@@H]1[C@@H]2CC[C@]2(C)C(=O)CC[C@@H]12", "note": "[4-androstenedione]", "values": [{"measurement": "Ratio H1/H2 of EC50, preference for aromatized A-ring", "setting": "AncSR1-LBD; [3]", "value": 144.93}, {"measurement": "Ratio H2/H1 of EC50, preference for aromatized A-ring", "setting": "AncSR1-LBD; [3]", "value": 0.01}, {"measurement": "EC50", "setting": "AncSR1-LBD; [2]", "value": "> 10000", "unit": "nM"}, {"measurement": "EC50", "setting": "AncSR2-LBD", "value": 411, "unit": "nM"}]}
{"compound": "C[C@]12CCC(=O)C=C1CC[C@@H]1[C@@H]2CC[C@@]2(C)[C@H]1CC[C@]2(O)C(=O)CO", "note": "[11-deoxycortisol]", "values": [{"measurement": "Ratio H1/H2 of EC50, preference for 21-OH group vs. H group", "setting": "AncSR2-LBD; [4]", "value": 0.08}, {"measurement": "Ratio H2/H1 of EC50, preference for 21-OH group vs. H group", "setting": "AncSR2-LBD; [4]", "value": 12.67}, {"measurement": "Ratio H1/H2 of EC50, preference for 11-OH vs. H group", "setting": "AncSR2-LBD; [5]", "value": 0.15}, {"measurement": "Ratio H2/H1 of EC50, preference for 11-OH vs. H group", "setting": "AncSR2-LBD; [5]", "value": 6.53}, {"measurement": "EC50", "setting": "AncSR2-LBD; read-out: EC50", "value": 1.5, "unit": "nM"}]}
{"compound": "CC(C)CCC[C@@H](C)[C@H]1CC[C@H]2[C@@H]3CC=C4C[C@@H](O)CC[C@]4(C)[C@H]3CC[C@]12C", "note": "[cholesterol]", "values": [{"measurement": "activation of AncSR1 (in words)", "setting": "AncSR1-LBD", "value": "unresponsive"}, {"measurement": "activation of AncSR2 (in words)", "setting": "AncSR2-LBD", "value": "completely unresponsive"}]}
{"compound": "C[C@H](O)[C@H]1CC[C@H]2[C@@H]3CCC4=CC(=O)CC[C@]4(C)[C@H]3CC[C@]12C", "note": "[20α hydroxyprogesterone]", "values": [{"measurement": "EC50", "setting": "AncSR2-LBD; read-out: EC50", "value": 19, "unit": "nM"}]}
{"compound": "CC(=O)C1CCC2C3CCC4=CC(=O)CCC4C3CCC12C", "note": "(stereo not drawn) [19-norprogesterone]", "values": [{"measurement": "Ratio H2/H1 of EC50, preference for aromatized A-ring", "setting": "AncSR1-LBD; [3]", "value": 0.02}, {"measurement": "EC50", "setting": "AncSR1-LBD; [2]", "value": "> 10000", "unit": "nM"}, {"measurement": "Ratio H1/H2 of EC50, preference for 19-H vs. 19-methyl group", "setting": "AncSR2-LBD; [1]", "value": 0.29}, {"measurement": "Ratio H2/H1 of EC50, preference for 19-H vs. 19-methyl group", "setting": "AncSR2-LBD; [1]", "value": 3.44}, {"measurement": "EC50", "setting": "AncSR2-LBD", "value": 1.6, "unit": "nM"}]}
{"compound": "C[C@]12CC[C@H]3[C@@H](CCC4=C[C@@H](O)CC[C@@]43C)[C@@H]1CC[C@@H]2O", "note": "[4-androstenediol]", "values": [{"measurement": "Ratio H1/H2 of EC50, preference for 17-acetyl vs. 17-hydroxy group", "setting": "AncSR2-LBD; [1]", "value": 119.09}, {"measurement": "Ratio H2/H1 of EC50, preference for 17-acetyl vs. 17-hydroxy group", "setting": "AncSR2-LBD; [1]", "value": 0.01}, {"measurement": "Ratio H1/H2 of EC50, preference for 3-hydroxy vs. 3-keto group", "setting": "AncSR2-LBD; [6]", "value": 2.26}, {"measurement": "Ratio H2/H1 of EC50, preference for 3-hydroxy vs. 3-keto group", "setting": "AncSR2-LBD; [6]", "value": 0.44}, {"measurement": "EC50", "setting": "AncSR2-LBD", "value": 262, "unit": "nM"}]}
{"compound": "CC/C(=C(/CC)c1ccc(O)cc1)c1ccc(O)cc1", "note": "[Diethylstilbestrol]", "values": [{"measurement": "activation of AncSR1 (in words)", "setting": "AncSR1-LBD", "value": "activated"}, {"measurement": "activation of AncSR2 (in words)", "setting": "AncSR2-LBD", "value": "not activated"}]}
{"compound": "C[C@]12CCC(=O)C=C1CC[C@@H]1[C@@H]2[C@@H](O)C[C@]2(C=O)[C@@H](C(=O)CO)CC[C@@H]12", "note": "[aldosterone]", "values": [{"measurement": "EC50", "setting": "AncSR2-LBD; read-out: EC50", "value": 1.9, "unit": "nM"}]}
